Test results reported in US20130156934A1, “MICROCAPSULES BY COACERVATION CONTAINING A PHARMACEUTICAL INCORPORATED IN THE COATING POLYMER” (APTALIS PHARMA LIMITED, priority 2003, published 2013).
One block for each compound: values may come before it.

Columns and labels:
[1] = Dissolution test according to USP 26 at pH 6.8; type: physicochemical
Experimental: A dissolution test is carried out on the microcapsules thus obtained comparing them with anhydrous theophylline in crystalline form.
The dissolution test was performed according to USP 26.
A dissolution test is carried out on the microcapsules obtained in Examples 5 and 6 according to the method previously described for Example 4
Dissolution test was performed according to USP 26
A dissolution test is carried out on the microcapsules thus obtained compared to fluoxetine raw material.
Dissolution test was performed according to USP 26.

[2] = Dissolution test according to USP 26 at pH 1.2; type: physicochemical; conditions: caffeine
Experimental: The microcapsutes obtained, when analysed with an electronic microscope (FIG. 3), show a distribution of the particles of the active principle within the polymeric membrane in the form of solid particles that are prevalently disposed at the interface between the polymer and the core. […] Dissolution test was performed according to USP 26.

Dissolution % at pH 6.8, 5 min ([1]; fluoxetine, USP 26): 55%
Dissolution % at pH 6.8, 10 min ([1]; fluoxetine, USP 26): 75%
Dissolution % at pH 6.8, 20 min ([1]; 20 min, fluoxetine, USP 26): 100%
Structure (SMILES): CNCCC(Oc1ccc(C(F)(F)F)cc1)c1ccccc1 (stereo not shown) [Fluoxetine]

Structure (SMILES): Cn1c(=O)c2c(ncn2C)n(C)c1=O [Caffeine]
Dissolution % at pH 1.2, 60 min [2]: 100%

Dissolution % at pH 6.8, 5 min ([1]; theophylline, USP 26): 65%
Dissolution % at pH 6.8, 10 min ([1]; theophylline, Table of Example 7, lower head): 100%
Dissolution % at pH 6.8, 15 min ([1]; 15 min, theophylline, USP 26): 100%
Structure (SMILES): Cn1c(=O)c2[nH]cnc2n(C)c1=O [Anhydrous Theophylline]
